# Test results published in patent US10501449B2 (priority 2018, dated 2019).
# Target: hROMK (human Kir1.1) (Homo sapiens (Human), UniProt P48048)
# Assay: cell-based
# Settings: CHO T-Rex hROMK stable cell line; thallium flux; 10-point concentration response curve; read-out: Human ROMK Th Flux IC50
# Sequence of hROMK (human Kir1.1) (P48048 whole entry): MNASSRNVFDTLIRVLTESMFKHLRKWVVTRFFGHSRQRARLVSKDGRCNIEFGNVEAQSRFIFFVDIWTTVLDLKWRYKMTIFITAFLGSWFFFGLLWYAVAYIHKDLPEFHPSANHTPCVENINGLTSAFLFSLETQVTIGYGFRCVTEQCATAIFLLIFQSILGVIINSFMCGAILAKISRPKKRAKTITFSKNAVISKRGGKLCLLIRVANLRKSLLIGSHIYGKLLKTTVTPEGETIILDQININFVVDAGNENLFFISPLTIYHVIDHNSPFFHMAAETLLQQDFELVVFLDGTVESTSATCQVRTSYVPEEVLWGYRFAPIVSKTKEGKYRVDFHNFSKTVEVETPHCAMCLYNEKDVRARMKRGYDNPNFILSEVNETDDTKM
row,SMILES,IC50 [nM]
1,"Cc1c([C@@H]2CN(Cc3ccc(-c4ccc(=O)n(C)c4)nc3)C[C@H](C)N2)ccc2c1COC2=O [Example 238-I, 1′-methyl-5-(((3S,5R)-3-methyl-5-(4-methyl-1-oxo-1,3-dihydroisobenzofuran-5-yl)piperazin-1-yl)methyl)-[2,3′-bipyridin]-6′(1′H)-one]",470
2,"Cc1cn(-c2ccc(CN3CC(=O)N[C@H](c4ccc5c(c4C)COC5=O)C3)cn2)cn1 [Example 76-I, (R)-6-(4-methyl-1-oxo-1,3-dihydroisobenzo-furan-5-yl)-4-((6-(4-methyl-1H-imidazol-1-yl)pyridin-3-yl)methyl) piperazin-2-one]",300
3,"CC(=O)NC1CCN(Cc2cnn(-c3cc(C)c(C#N)cn3)c2)CC1c1ccc2c(c1C)COC2=O (single isomer, unassigned) [Example 248-I, N-(1-((1-(5-cyano-4-methylpyridin-2-yl)-1H-pyrazol-4-yl)methyl)-3-(4-methyl-1-oxo-1,3-dihydroisobenzofuran-5-yl)piperidin-4-yl)acetamide]",1500
4,"Cc1c([C@@H]2CN(Cc3cnn(-c4ccc5oc(=O)n(C)c5c4)c3)CCN2)ccc2c1COC2=O [Example 58-I, (R)-3-methyl-5-(4-((3-(4-methyl-1-oxo-1,3-dihydroisobenzofuran-5-yl)piperazin-1-yl)methyl)-1H-pyrazol-1-yl) benzo[d]oxazol-2(3H)-one]",60
5,"Cc1cc(N2CCCS2(=O)=O)cc(-n2cc(CN3C[C@@H](c4ccc5c(c4C)COC5=O)N[C@@H](C)C3)cn2)n1 [Example 253-I, 5-((2R,6S)-4-((1-(4-(1,1-dioxidoisothiazolidin-2-yl)-6-methylpyridin-2-yl)-1H-pyrazol-4-yl)methyl)-6-methylpiperazin-2-yl)-4-methylisobenzofuran-1(3H)-one]",400
6,"COC(=O)N1CCN(Cc2cnn(-c3cc(C)c(C#N)cn3)c2)C[C@H]1c1ccc2c(c1C)COC2=O [Example 24-I, Methyl (R)-4-((1-(5-cyano-4-methylpyridin-2-yl)-1H-pyrazol-4-yl)methyl)-2-(4-methyl-1-oxo-1,3-dihydroisobenzofuran-5-yl)piperazine-1-carboxylate]",500
7,"Cc1c([C@@H]2CN(Cc3cn(-c4ccc5oc(=O)n(C)c5c4)cn3)CCO2)ccc2c1COC2=O [Example 29-I, (R)-3-methyl-5-(4-((2-(4-methyl-1-oxo-1,3-dihydroisobenzofuran-5-yl)morpholino)methyl)-1H-imidazol-1-yl) benzo[d]oxazol-2(3H)-one]",120
8,"Cc1c([C@@H]2CN(Cc3cnn(-c4cc(C5CC5)c(C#N)cn4)c3)CCO2)ccc2c1COC2=O [Example 8-I, (R)-4-cyclopropyl-6-(4-((2-(4-methyl-1-oxo-1,3-dihydroisobenzofuran-5-yl)morpholino)methyl)-1H-pyrazol-1-yl)nicotinonitrile]",280
9,"Cc1cc(-c2nnc(CN3CCO[C@H](c4ccc5c(c4C)COC5=O)C3)o2)ncc1C#N [Example 30-I, (R)-4-methyl-6-(5-((2-(4-methyl-1-oxo-1,3-dihydroisobenzofuran-5-yl)morpholino)methyl)-1,3,4-oxadiazol-2-yl) nicotinonitrile]",260
10,"Cc1cc(-n2cc(C(O)CN3CCO[C@H](c4ccc5c(c4C)COC5=O)C3)cn2)ncc1C#N (single isomer, unassigned) [Example 18-I]",870
11,"Cc1c([C@@H]2CN(Cc3ccc(-n4cnc(C(F)F)c4)nc3)CCN2)ccc2c1COC2=O [Example 235-I, (R)-5-(4-((6-(4 (difluoromethyl)-1H-imidazol-1-yl)pyridin-3-yl)methyl)piperazin-2-yl)-4-methylisobenzofuran-1(3H)-one]",83
12,"Cc1c([C@@H]2CN(Cc3cnn(-c4ccsc4)c3)CCO2)ccc2c1COC2=O [Example 38-I, (R)-4-methyl-5-(4-((1-(thiophen-3-yl)-1H-pyrazol-4-yl)methyl)morpholin-2-yl)isobenzo-furan-1(3H)-one]",3400
13,"COc1c(CN2CCN[C@H](c3ccc4c(c3C)COC4=O)C2)cnn1-c1ccc2oc(=O)n(C)c2c1 [Example 54-I, (R)-5-(5-methoxy-4-((3-(4-methyl-1-oxo-1,3-dihydroisobenzofuran-5-yl)piperazin-1-yl)methyl)-1H-pyrazol-1-yl)-3-methylbenzo[d] oxazol-2(3H)-one]",110
14,"Cc1cc(-n2cc(CN3CCC(F)(F)C(c4ccc5c(c4C)COC5=O)C3)cn2)ncc1C#N (stereo not shown) [Example 5, 6-(4-((4,4-difluoro-3-(4-methyl-1-oxo-1,3-dihydroisobenzofuran-5-yl)piperidin-1-yl)methyl)-1H-pyrazol-1-yl)-4-methylnicotinonitrile]",270
15,"Cc1cc(-c2ncc(C(=O)N3CCO[C@H](c4ccc5c(c4C)COC5=O)C3)s2)ncc1C#N [Example 33-I, (R)-4-methyl-6-(5-(2-(4-methyl-1-oxo-1,3-di-hydroisobenzofuran-5-yl)morpholine-4-carbonyl)thiazol-2-yl) nicotinonitrile]",690
16,"Cc1cc(-n2ncc(CN3C[C@H](C)N(O)[C@H](c4ccc5c(c4C)COC5=O)C3)n2)ncc1C#N [Example 246-I, 6-(4-(((3S,5R)-4-hydroxy-3-methyl-5-(4-methyl-1-oxo-1,3-dihydroisobenzofuran-5-yl)piperazin-1-yl)methyl)-2H-1,2,3-triazol-2-yl)-4-methylnicotinonitrile]",870
17,"Cc1c([C@@H]2CN(Cc3cnc(-c4ccc5oc(=O)n(C)c5c4)s3)CCO2)ccc2c1COC2=O [Example 19-I, (R)-3-methyl-5-(5-((2-(4-methyl-1-oxo-1,3-dihydroisobenzofuran-5-yl)morpholino)methyl)thiazol-2-yl)benzo[d]oxazol-2(3H)-one]",180
18,"Cc1c([C@@H]2CN(Cc3cnn(-c4ccnc5c4ccn5C)c3)CCO2)ccc2c1COC2=O [Example 177-I, (R)-4-methyl-5-(4-((1-(1-methyl-1H-pyrrolo[2,3-b]pyridin-4-yl)-1H-pyrazol-4-yl)methyl)morpholin-2-yl)isobenzofuran-1(3H)-one]",500
19,"Cc1cc(-n2cc(CN3CCN(S(C)(=O)=O)[C@H](c4ccc5c(c4C)COC5=O)C3)cn2)ncc1C#N [Example 69-I, (R)-4-methyl-6-(4-((3-(4-methyl-1-oxo-1,3-dihydroisobenzofuran-5-yl)-4-(methylsulfonyl)piperazin-1-yl)methyl)-1H-pyrazol-1-yl) nicotinonitrile]",900
20,"Cc1c([C@@H]2CN(Cc3cnn(-c4ccc5oc(=O)n(C)c5c4C)c3)CCN2)ccc2c1COC2=O [Example 135-I, (R)-3,4-dimethyl-5-(4-((3-(4-methyl-1-oxo-1,3-dihydroisobenzofuran-5-yl)piperazin-1-yl)methyl)-1H-pyrazol-1-yl)benzo[d]oxazol-2(3H)-one]",170
21,"Cc1c(C#N)ccnc1-n1cc(CN2C[C@@H](c3ccc4c(c3C)COC4=O)N[C@@H](C)C2)cn1 [Example 202-I, 3-methyl-2-(4-(((3S,5R)-3-methyl-5-(4-methyl-1-oxo-1,3-dihdyroisobenzofuran-5-yl)piperazin-1-yl)methyl)-1H-pyrazol-1-yl)isonicotinonitrile]",140
22,"Cc1c([C@@H]2CN(Cc3cnn(-c4cc(F)c5oc(=O)n(C)c5c4)c3)CCN2)ccc2c1COC2=O [Example 55-I, (R)-7-fluoro-3-methyl-5-(4-((3-(4-methyl-1-oxo-1,3-dihydroisobenzo-furan-5-yl)piperazin-1-yl)methyl)-1H-pyra-zol-1-yl)benzo[d]oxazol-2(3H)-one]",86
